# Legend:
# [1] = test system: Pseudomonas aeruginosa strain PAO1; assay: nitrate dependent growth of PAO1 under anaerobic atmosphere; format: cell-based; details: for inhibition of growth: anaerobic; for nitrate dependent growth: LB broth with nitrate, anaerobic atmosphere
# Protocol: FIG. 1. […] Pseudomonas aeruginosa strain PAO1 is capable of growing in the absence of oxygen using nitrate for respiration. […] The studies presented in FIG. 1 examine whether glutathione influences the growth of PAO1 either in the presence or absence of nitrate under either ambient (aerobic) or anaerobic atmospheres. […]
# FIG. 4. […] To examine this possibility, S-nitrosoglutathione (Sigma) was tested for influence on growth of PAO1 in TSBN (1% KNO3) with and without 6.4 mM glutathione.
# (§1) FIG. 7. […] The next series of experiments was designed to determine if there were any influences of ascorbate on glutathione potentiation of the growth inhibition of the RNI (FIGS. 7, 8 and 9).
# [2] = test system: Pseudomonas aeruginosa strain PAO1; assay: aerobic growth of PAO1 in broth in ambient atmosphere; format: cell-based; details: for effects on aerobic growth attained by 17 h, single components: each alone: KNO2 to 3.5 mM, glutathione to 5 mM, ascorbate to 2.1 mM
# Source text: FIG. 1. […] Pseudomonas aeruginosa strain PAO1 is capable of growing in the absence of oxygen using nitrate for respiration. […] The studies presented in FIG. 1 examine whether glutathione influences the growth of PAO1 either in the presence or absence of nitrate under either ambient (aerobic) or anaerobic atmospheres.
# (§2) FIG. 2. […] To test this possibility, reduced glutathione was titrated vs. increasing concentrations of KNO2 in either trypticase soy broth (TSB) in ambient atmosphere or in trypticase soy broth with nitrate (TSBN) (1% KNO3) under anaerobic atmosphere.
# (§3) FIG. 3. […] These studies examined the question of the importance of the redox state of glutathione to its contributions to the inhibition by RNI and to the blocking of the glucose oxidase antimicrobial effects. Glutathione in either its reduced (GSH) or oxidized (GSSG) form was titrated in the presence or absence of 14 mM nitrite in TSB and PAO1 was grown in ambient atmosphere.
# FIG. 6. […] If NO reacts with glutathione to generate nitrosoglutathione then gassing with NO in the presence of glutathione may be expected to yield greater activity than gassing first and then adding glutathione. To test this effect, LB broth was either pre-gassed with NO followed by titration of GSH or the LB broth aliquots containing various concentrations of GSH were gassed. Titration of NO was accomplished by varying the gassing times of the LB broth.
# as §1
# FIG. 8. […] Ascorbate was titrated over a checkerboard titration of glutathione and KNO2 in LB broth.
# FIG. 9. […] In these experiments, varying concentrations of NO were achieved again by varying the gassing time (10, 15, 30 or 45 min) with 2.3% NO in N2 either in the presence (NO-GSH) or absence (NO-LB) of varying concentrations of glutathione. Glutathione was added to NO-LB in varying concentrations (NO-LB+GSH).
# [3] = test system: Pseudomonas aeruginosa strain PAO1; assay: glucose oxidase / H2O2 mediated growth inhibition of PAO1; format: cell-based
# Source text: as §2, §3
# [4] = test system: P. aeruginosa clinical isolate (C3873M)
# Protocol: (§4) FIGS. 10A-B. Influences of bicarbonate on alginate production by different strains of P. aeruginosa under a 5% CO2 atmosphere. Alginate production of selected strains of P. aeruginosa surface grown in a CO2 incubator was quantitatively determined by a colorimetric assay. […] These three strains were then tested for their ability to make alginate under an atmosphere of 5% CO2 with increasing concentrations of NaHCO3(FIG. 10B).
# PAO1 = details: 5% CO2; increasing concentrations of NaHCO3
# Protocol: as §4
# [5] = test system: Pa Mucoid laboratory derived from PAO1; details: 5% CO2; increasing concentrations of NaHCO3
# Protocol: as §4
# CB2 receptor = CB2 receptor (Homo sapiens, UniProt P34972); details: cited from earlier work
# [6] = absence of NO, glutathione and ascorbate concentrations and combinations of the study
# Sequence of CB2 receptor (P34972 whole entry): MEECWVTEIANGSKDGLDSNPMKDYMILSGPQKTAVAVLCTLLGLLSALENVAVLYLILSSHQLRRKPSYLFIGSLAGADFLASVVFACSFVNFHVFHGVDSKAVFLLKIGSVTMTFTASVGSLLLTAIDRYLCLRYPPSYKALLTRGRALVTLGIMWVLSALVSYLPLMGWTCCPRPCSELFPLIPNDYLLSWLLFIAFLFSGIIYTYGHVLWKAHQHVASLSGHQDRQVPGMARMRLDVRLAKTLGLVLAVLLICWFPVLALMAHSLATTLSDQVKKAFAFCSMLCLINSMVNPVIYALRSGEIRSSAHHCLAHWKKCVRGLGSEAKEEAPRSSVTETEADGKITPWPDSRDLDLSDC
compound,measurement,setting,value
"N[C@@H](CCC(=O)N[C@@H](CSN=O)C(=O)NCC(=O)O)C(=O)O [GSNO, S-nitrosoglutathione, reference compound]","inhibition of growth, bacterial density (A=650 nm) at 18 h","[1]; GSNO titrated, TSBN (1% KNO3), without glutathione",concentration dependent inhibition
"[N]=O [NO, nitric oxide, reference compound]",inhibition of aerobic growth by NO,"[2]; LB broth gassed with NO, absence of glutathione",no discernible inhibition
"O=N[O-].[K+] [nitrite, KNO2, reference compound]",inhibitory effects on aerobic growth,"[2]; KNO2 in the presence of glutathione, LB broth",concentration dependent inhibitory effects
same,"effects on aerobic growth attained by 17 h, single components",[2]; LB broth,"neither KNO2 to 3.5 mM, glutathione to 5 mM nor ascorbate to 2.1 mM had discernible effects"
same,lowest KNO2 concentration at which synergistic inhibition was evident,"[2]; in the presence of 5 mM glutathione, ascorbate titrated, LB broth",0.875 mM
same,inhibition of aerobic growth,"[2]; nitrite to 14 mM, absence of glutathione, TSB",no discernible inhibition
same,inhibition of growth,"[1]; KNO2 added, TSBN (1% KNO3), absence of glutathione",significant inhibition
"N[C@@H](CCC(=O)N[C@@H](CS)C(=O)NCC(=O)O)C(=O)O [glutathione, N—(N-L-γ-glutamyl-L-cysteinyl)glycine]","inhibition of aerobic growth, glutathione with NO","[2]; 2.5 mM glutathione, NO titrated by gassing time, LB broth",dose dependent NO inhibition of growth
same,inhibition of aerobic growth,"[2]; 5 mM glutathione and ascorbate, presence versus absence of nitrate",greater inhibition of aerobic growth
same,"inhibition of aerobic growth, glutathione with NO","[2]; 5 mM glutathione, lowest concentration of NO (10 minutes gassing time), LB broth",total inhibition
same,"inhibition of aerobic growth, glutathione with NO","[2]; 5 mM glutathione, lowest concentration of NO, regardless of order of addition",total inhibition of growth
same,"inhibition of growth, glutathione with nitrite","[2]; 6.4 mM GSH and 14 mM KNO2, TSB, ambient atmosphere",significant inhibition
same,growth yield at 14 h,"[2]; 7.5 mM glutathione, LB broth with or without 1% nitrate, aerobic",reduced growth yield
same,"inhibition of growth, glutathione with nitrite","[2]; 12.8 mM GSH and 7 mM KNO2, TSB, ambient atmosphere",significant inhibition
same,inhibition of PAO1 growth in the presence of nitrite,"[2]; 14 mM nitrite, TSB, ambient atmosphere, molar equivalency",inhibition of PAO1 growth
same,enhancement of NO gas inhibition of aerobic growth,"[2]; 0.5 relative concentration of NO, TSB",dose dependent enhancement of inhibition
same,inhibitory effects on aerobic growth,[2]; [6],no inhibitory effects
same,"effects on aerobic growth attained by 17 h, single components",[2]; LB broth,"neither KNO2 to 3.5 mM, glutathione to 5 mM nor ascorbate to 2.1 mM had discernible effects"
same,aerobic growth attained,"[2]; glutathione titrated, LB broth",dose dependent reduction in the aerobic growth
same,lowest glutathione concentration at which synergistic inhibition was evident,"[2]; in the presence of 1.75 mM KNO2, ascorbate titrated, LB broth",2.5 mM
same,enhancement of NO gas inhibition of aerobic growth,"[2]; lower NO concentrations, TSB",not at lower NO concentrations
same,aerobic growth of P. aeruginosa,[2]; nitrite and nitric oxide in the presence of GSH,inhibit the aerobic growth of P. aeruginosa
same,growth yield,"[2]; reduced glutathione titrated, TSB, absence of nitrite","slight, but significant, concentration-dependent increase in growth yield"
same,growth in an anaerobic atmosphere with nitrate,"[1]; 2.5 mM and lower concentrations of glutathione, absence of ascorbate",permitted growth
same,nitrate dependent growth,[1]; 2.5 mM glutathione or less,no discernible effects
same,nitrate dependent growth,[1]; 5 mM glutathione,total inhibition
same,"effect on GSNO inhibition of growth, bacterial density (A=650 nm) at 18 h","[1]; 6.4 mM glutathione with GSNO, TSBN (1% KNO3)",significantly enhanced
same,nitrate dependent growth,[1]; 7.5 mM glutathione,total inhibition
same,inhibition of growth,"[1]; increasing GSH with nitrite concentrations not totally inhibitory by themselves, TSBN",further inhibition
same,"use of nitrate, nitrite or nitric oxide for growth under anaerobic conditions","[1]; preliminary data, P. aeruginosa","limit the ability of P. aeruginosa to utilize nitrate, nitrite, or nitric oxide to grow under anaerobic conditions"
same,anti-pseudomonal activities of GSNO and other nitric oxide donors,[1]; presence of exogenous glutathione,potentiated
same,growth inhibition of PAO1 by exogenous H2O2,[3]; 14 mM GSH,blocked
same,protection from inhibition with the glucose oxidase system,"[3]; TSB, ambient atmosphere",protected PAO1 from inhibition
same,protection from the growth inhibiting effects of glucose oxidase,[3]; increasing concentration of GSH,protected PAO1
"O=C(O)O [bicarbonate, NaHCO3]",alginate production,"[4]; 5% CO2, increasing concentrations of NaHCO3",inhibited
same,alginate production associated with the mucoidy phenotype of P. aeruginosa,[4]; preliminary studies,inhibits the alginate production
same,alginate production,PAO1,failed to make alginate
same,alginate production,[5],significantly enhanced
"O=C1O[C@H]([C@@H](O)CO)C(O)=C1O [ascorbate, ascorbic acid]",inhibition of growth in ambient atmosphere,"[2]; 0.2 mM ascorbate with 7.5 mM glutathione, presence of nitrate",profound inhibition of growth
same,inhibition of aerobic growth,"[2]; 2.1 mM ascorbate with 7.5 mM glutathione, absence of nitrate",total inhibition
same,inhibitory effects on aerobic growth,[2]; [6],no inhibitory effects
same,effect on inhibition by KNO2 with glutathione,"[2]; ascorbate added to KNO2 and glutathione, LB broth",enhanced
same,effect on aerobic growth attained by 17 h,"[2]; ascorbate added to either glutathione or KNO2, LB broth",no discernible effect
same,enhancement of inhibition of aerobic growth,"[2]; ascorbate titrated, 15 min delivery of NO, 2.5 mM GSH",concentration dependent ascorbate enhancement of inhibition
same,"effects on aerobic growth attained by 17 h, single components",[2]; LB broth,"neither KNO2 to 3.5 mM, glutathione to 5 mM nor ascorbate to 2.1 mM had discernible effects"
same,effect on glutathione reduction of aerobic growth,"[2]; increasing concentrations of ascorbic acid added to glutathione, LB broth",further enhanced
same,decrease in nitrate-dependent growth,[1]; increasing ascorbate in the presence of 2.5 mM glutathione,more pronounced
same,nitrate-dependent growth,"[1]; increasing concentrations of ascorbate, absence of glutathione",dose dependent decrease in nitrate-dependent growth
"C=C1CC[C@@H]2[C@@H](C1)c1c(OC)cc(C(C)(C)CCCCCC)cc1OC2(C)C [L-759,656]",CB1/CB2 binding ratio,CB2 receptor,> 1000

# From patent US12685755B2, “Methods and compositions for treating mucosal tissue disorders” (The University of North Carolina at Chapel Hill, priority 2012, dated 2026)
